The test system of data set [1] is hMSCs. The experiment in a line: STRO-1 stemness marker expression in hMSCs (immunostaining, ImageJ quantification). The settings on record: SEQ ID NO: 1 to 49 tested in combination with a bioactive carrier (titanium, ceramics, PEEK, hydrogel, etc.). It counts as cell-based, Human. The gist of the method:
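hMSCs exposed to GFR-binding peptides in solution or grafted on surfaces; cells fixed in 4% paraformaldehyde, permeabilized, stained with Stro-1 antibody (1 h, 37° C) plus Alexa Fluor secondary and DAPI. Stro-1 positive contact number and area quantified by thresholded image analysis, at least 30 cells per condition.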

In data set [2] the test system is hMSCs. The experiment in a line: Chondrocyte differentiation of hMSCs on modified hydrogels (Sox9, Aggrecan). It counts as cell-based, Human. Particulars: 96 hours, hydrogel 14 kPa covalently modified; for Aggrecan gene expression: semi-quantitative RT-PCR. The protocol: (§1) Total RNA was extracted by using the RNeasy total RNA kit (Qiagen®) according to the manufacturer's instructions. Purified total RNA was used as a template in order to make cDNA by a reverse transcription reaction (Gibco Brl®) with random primers (Invitrogen®). The cDNA was then used as a template for a real-time PCR amplification in the presence of SYBR green reagents (Bio-Rad®) by using a thermocycler (iCycler, Biorad®). Data were analyzed with the iCycler IQ™® software and compared by the ΔΔCt method. Briefly, the mean Ct value of the target gene was normalized to its averaged Ct values of the housekeeping gene (HPRT) to give a ΔCt value, which was then normalized to a control sample to obtain a ΔΔCt value.
Total RNA was extracted by using the RNeasy Mini Kit (Qiagen) and […] RNA was used for cDNA synthesis with AMV kit (Invitrogen®) according to the manufacturer' instructions. Semi-quantitative reverse transcriptase-polymerase chain reaction (RT-PCR) was performed with Taq DNA Polymerase (Invitrogen®) in a thermocycler (Bio-Rad®). The cDNA input was normalized to […] (HPRT). The PCR products were analyzed on 2% agarose gels. For the Aggrecan gene, the PCR bands were densitometrically quantified by using the BioCapt software (Vilber). Values were normalized to HPRT, and results were reported as relative gene expression.
For that a semi-quantitative RT-PCR was performed as described in the Methods section for the Aggrecan gene and a Quantitative Real Time PCR for Sox9.

A further data set deals with Hair Follicle Stem Cells. The data set can be described thus: Activation of hair follicle stem cells on modified hydrogels (Sox2, BMP-6 release). The data set is classed as cell-based, Mouse. Particulars: hydrogel 73 kPa covalently modified.
Data set [3] has as its system Human umbilical-vein endothelial cells. The data set can be described thus: Endothelialization: adherent junctions (CD31) of HUVECs on modified PET. The data set is classed as cell-based. Particulars: 36 hours, covalently modified PET. The protocol:
An increase in the area of the adherent junctions (CD31) was observed after 36 hours of culture on the covalently modified PET (FIG. 13).

Data set [4] deals with Human Mesenchymal Stem Cells (hMSCs). The experiment in a line: Osteogenic differentiation of human mesenchymal stem cells (Runx2, Osterix immunostaining, ALP activity). It counts as cell-based. Particulars: 1 week, type-I collagen sponge coupled with peptide.
Data set [5] relates to Human umbilical-vein endothelial cells. The experiment in a line: Angiogenesis: tube-like structure formation of HUVECs on modified PET. The settings on record: 18 hours, covalently modified PET. The data set is classed as cell-based.
Data set [6] concerns Human Hematopoietic Stem Cells. The data set can be described thus: CD-34+ stemness marker expression (immunostaining, ImageJ quantification). It counts as cell-based. Particulars: peptides grafted on a PET surface; 48 hours.
Data set [7] can be described thus: Stability of non-covalent peptide coating on apatite ceramics / type-I collagen (fluorescent peptides). The data set is classed as physicochemical. The settings on record: non-covalent coating on apatite ceramics (SEQ ID NO: 23) or type-I collagen sponge (SEQ ID NO: 22); 3, 7 or 10 days. How it is done:
Non-covalent modifications of the materials were performed in Air Atmosphere at room temperature. The non-covalent coating strategy consisted in using a mixture of inducing peptide (SEQ ID NO: 23; concentration of 1×10^−3M) with an apatite ceramics implant or a mixture of inducing peptide (SEQ ID NO: 22; concentration of 1×10^−3M) with a type-I collagen sponge. The non-covalently coated conventional materials were characterized by using fluorescent peptides (Here SEQ ID NO: 22 and 23 covalently bound to fluorescein isothiocyanate (FITC), FIG. 6). The results shown here in FIG. 6 were obtained from experiments performed with apatite ceramics and a type-I collagen sponge. […] Indeed, after 3, 7 or 10 days, the osteogenic peptides were still coupled to the ceramics or the type-I collagen (FIGS. 7a and b).

For data set [8], the system named is mouse mesenchymal pre-osteoblastic cells (MC3T3-E1). The experiment in a line: Osteogenic differentiation of osteoblast progenitors (extracellular matrix, Osteopontin, Runx2 Q-PCR). Particulars: 48 hours. It counts as cell-based. The protocol:
The surface profiler system is a non-contact optical profiler that measures a wide range of surface heights. The vertical scanning interferometry mode allows for the measurement of rough surfaces and steps of up to several micrometers. This mode was used in order to measure the thickness of the extracellular matrix produced by the cells. First, after 24 h of culture, the cells were fixed with paraformaldehyde in PBS (4%) for 30 minutes at 4° C. and the samples were dehydrated in increasing concentrations of ethanol (30, 70, 80, 90, 95 and 100%) and critical-point dried. To evaluate the extent of the newly synthesized extracellular matrix, a spatula was used to scratch the surface of the materials. The samples were then metallized for 10 sec with gold or titanium before being analyzed.
Total RNA was extracted by using the RNeasy total RNA kit (Qiagen®) according to the manufacturer's instructions. Purified total RNA was used as a template in order to make cDNA by a reverse transcription reaction (Gibco Brl®) with random primers (Invitrogen®). […] Data were analyzed with the iCycler IQ™® software and compared by the ΔΔCt method. […]
The effect of these GFR-binding compounds as defined herein (SEQ ID NO: 33) on the differentiation of osteoblast progenitors was evaluated. […]

The test system of a further data set is Neurons. The experiment in a line: Neuron growth on modified titanium (dendrite growth, GAP43 Q-PCR). It counts as cell-based. Particulars: covalently modified titanium. The protocol: as §1
Neurons were cultured on native titanium (control) and on titanium covalently modified with neurogenic peptides (SEQ ID NO: 49). […] To further confirm this the expression of the Growth Associated Protein 43 (GAP43) gene was verified for neuron cells cultured on materials covalently modified with neurogenic peptides (SEQ ID NO: 49).

For the sequence AVPKASSAPTKLEPLPIVYY [SEQ ID NO: 36], the STRO-1 expression in the data set with hMSCs [1] is 21%. Besides, in the data set on hMSCs [2], the “expression of the Sox9 protein” value is “observed” and the Aggrecan gene expression entry is listed as “increased expression”.

On to GSAGPSSVPEKMSSLSILFF [SEQ ID NO: 42], for which, in the data set on Hair Follicle Stem Cells, the “BMP-6 release in the cell culture medium” value was “decrease” and the Sox2 protein expression entry is listed as “increase”. In addition, in the data set with hMSCs [1], the STRO-1 expression was found to be 26%.

Consider STPPTSSSRVRLRSVKVAKV [SEQ ID NO: 38], for which the “area of the adherent junctions (CD31)” value in data set [3] is given as “increase”. The STRO-1 expression with hMSCs [1] came out at 34%.

On to KIPKASSVSQELEPLTILYY [SEQ ID NO: 37], for which the STRO-1 expression in the data set with hMSCs [1] was found to be 17%. In the data set with hMSCs [2], the “expression of the Sox9 protein” value is “observed” and the Aggrecan gene expression entry is “increased expression”.

AASKASSVPEKLSSLSILFF [SEQ ID NO: 41]: in the data set with Hair Follicle Stem Cells, the “BMP-6 release in the cell culture medium” value is “decrease” and the Sox2 protein expression result was “increase”. In the data set on hMSCs [1], the STRO-1 expression is 28%.

Take “WWFWGAAPASSSVPTRLSPISVLYK (WWFWGAAPASXXVPTRLSPISVLYK; GFR-binding peptide; MOD_RES (11)..(12): Xaa is C or S) [SEQ ID NO: 32]”: in data set [4], the ALP activity entry is “increase”. In the data set on hMSCs [1], the STRO-1 expression turned out to be 27%.

For KVGKASSVPTKLSNITMQIM [SEQ ID NO: 39], the STRO-1 expression with hMSCs [1] is listed as 32%. Moreover, the “formation of tube-like structures” value in [5] is “observed”.

For the sequence “RVPSTSSTPTKMKPLSILYV (GFR-binding peptide) [SEQ ID NO: 1080]”, the “CD34+ Expression” value in [6] was determined as 31%.

Take “KIPKASSVPEELEPLPTVYY (GFR-binding peptide) [SEQ ID NO: 1081]”: in data set [6], the “CD34+ Expression” value is reported as 33%.

“WWFWGSAGPSSTPTKMSAISMLYL (WWFWGSAGPXXTPTKMSAISMLYL; GFR-binding peptide; MOD_RES (10)..(11): Xaa is C or S) [SEQ ID NO: 22]”: the “release of peptides over time” value in data set [7] is reported as “no significant release”. In addition, in the data set with hMSCs [1], the STRO-1 expression amounted to 29%.

With “AASKASSAPTKMSPINILYF (GFR-binding peptide) [SEQ ID NO: 1079]”, in data set [6], the “CD34+ Expression” value is on record as 30%.

For “GTPGPHVTKPTSVPTKLSAISMLYL (GTPGPHVTKPTXVPTKLSAISMLYL; GFR-binding peptide; MOD_RES (12)..(12): Xaa is C or S) [SEQ ID NO: 23]”, the “release of peptides over time” value in data set [7] is recorded as “no significant release”. For the same sequence, in the data set on hMSCs [1], the STRO-1 expression was found to be 28%.

Consider “WWFWGKASKASSVPTKLSAISMLYL (WWFWGKASKAXXVPTKLSAISMLYL; GFR-binding peptide; MOD_RES (11)..(12): Xaa is C or S) [SEQ ID NO: 33]”, for which the STRO-1 expression in the data set with hMSCs [1] was 26%. Besides, the “differentiation of osteoblast progenitors” value in data set [8] (apatite ceramics or type-I collagen sponge coupled with peptide) is reported as “differentiated into mature osteoblasts”. Moreover, in data set [8] (vs native type-I collagen sponge, immunofluorescence), the “production of extracellular matrix proteins such as Osteopontin (OPN)” value was “extensive amounts”.

With GIPEPSSVPAKMSPISILYI [SEQ ID NO: 49], the STRO-1 expression in the data set on hMSCs [1] was determined as 19%. In addition, the “cell-cell contacts via dendrite growth” value in the data set with Neurons (6 hours) is on record as “rapid establishment”. In the data set with Neurons (48 hours, Q-PCR), the GAP43 gene expression entry is listed as “high level of expression”.

“KIPKASSTPTRLRSVKMAKV (GFR-binding peptide) [SEQ ID NO: 1083]”: the “CD34+ Expression” value in data set [6] came out at 17%.

(Values after patent US11578110B2, “Compounds for inducing tissue formation and uses thereof” (HISTIDE AG, priority 2015, dated 2023).)
